Experimental data reported in patent US4563462A, “Substance AX-2, a process for producing the same and an antitumor composition containing the same” (Kyowa Hakko Kogyo Kabushiki, priority 1982, dated 1986).

How the values were obtained:
Peripherical leucocytes = Peripherical leucocytes count (WBC) in Sarcoma 180 bearing mice; format: in vivo, ddy male mouse; conditions: blood 4 days after tumour implantation
Experimental: (§1) On each occasion, 5×10^6 cells of Sarcoma 180 solid tumour were implanted into the abdominal cavity of a ddy male mouse. 7 days after this, the cells were collected from the ascites.The cells were washed once with a sterilized physiological solution of sodium chloride and suspended in a sterilized physiological solution of sodium chloride at a concentration of 5×10^7 cells/ml, of which 0.1 ml was implanted under the skin at the right artpit of a ddy male mouse having a weight of 20±2 g. 24 hours after this, the active substance was administered into the vein at the tail of each mouse of a group consisting of 5 mice. In order to investigate the anti-tumour activity, 7 days after administration of AX-2, the major axis (a) and minor axis (b) of the tumour were measured, from which the volume of the tumour was calculated as a X b^2 /2. The effect of AX-2 is expressed by T/C which denotes the volume ratio of T [mice administered with AX-2 ] to C (untreated group). Table 1 indicates the effect of AX-2 agsinst Sarcoma 180 solid tumour by injection (iv.).
The peripherical leucocytes count (WBC) was measured by using a micro cell counter in the following manner. Sarcoma 180 solid tumour was implanted by injection (ip.). 4 days after this, blood was collected from the eye ground, of which 20 μl was added to 9.98 ml of Cellkit-7 (a reagent commercially available from Toyo Rika K.K., Japan) to dissolve the red cells. In this solution a drop of saponin was dispersed, followed by measuring with a micro cell counter.

Melanoma B16 tumour = assay: Effects on Melanoma B16 tumour (survival, ip.); format: in vivo, C57 BL/6 male mouse
Experimental: (2) Effects on Melanoma B16 tumour:
Tumour cells were collected from Melanoma B16 tumour cells lined in the abdominal cavity of a C57 BL/6 male mouse and suspended in a sterilized physiological solution of sodium chloride at a concentration of 2.5×10^7 cell/ml, of which 0.2 ml was implanted into the abdominal cavity of each mouse. The anti-tumour activity was indicated by T/C % where T and C respectively indicate the average survival days of treated and untreated groups.
As apparent from this table, it was noted that by administration of AX-2 in an amount of 6 mg/kg, the T/C value was more than 277% and 1/5 of the mice were alive 60 days after the beginning of the administration. The therapeutic index [a dose showing a maximum therapeutic effect/a dose showing a T/C of 130%] was 193.

Solubility = format: physicochemical
Sarcoma 180 solid tumour = assay: Effect on Sarcoma 180 solid tumour (volume ratio T/C, iv.); format: in vivo, ddy male mouse; conditions: for T/C (tumour volume ratio): 7 days after administration; for Survials (7 days): Sarcoma 180 mice
Experimental: (1) Effect on Sarcoma 180 solid tumour:
as §1
A T/C of 0.25 was obtained from the group, to which each 15 mg/kg of AX-2 had been administered. In this table, ED50 denotes a dose capable of reducing the volume of the tumour to 50% of the corresponding volume of the control group. Such volumes were calculated by plotting a relation between the dose and T/C on a logarithmic graph which indiates T/C on the ordinate and the dose on the abscissa, and calculating the dose and anti-tumour activity as a straight line by the method of least squares. The dose corresponding to T/C of 0.5 is defined as ED50.

[1] = Acute toxicity (LD50) of AX-2, single injection, 14 days observation, Behrens-Korber's method; set-up: species or system Mice (ddy strain); conditions: mouse, in vivo, male ddy mice
Text: The acute toxicity and anti-tumour activity of AX-2 are as follows. I. Acute toxicity (LD50) of AX-2:
Mice (ddy strain; male; weight 20±2 g; each group consisting of 5 mice) were used as test animals. On each occasion, the active substance of this invention was once administered to the animal by injection (ip. or iv.).

Compound: COC1=C(C)C(=O)C2=C(C1=O)C(COC(N)=O)C1(OC)NCC3C1N23 (stereo not shown) [AX-2]
- Peripherical leucocytes count (WBC) ± SD/mm^3 (Peripherical leucocytes; 1.88 mg/kg): 7730 ± 49 /mm^3
- Peripherical leucocytes count (WBC) ± SD/mm^3 (Peripherical leucocytes; 3.75 mg/kg): 6730 ± 115 /mm^3
- Peripherical leucocytes count (WBC) ± SD/mm^3 (Peripherical leucocytes; 7.5 mg/kg): 4100 ± 55 /mm^3
- Peripherical leucocytes count (WBC) ± SD/mm^3 (Peripherical leucocytes; 10 mg/kg): 2800 ± 80 /mm^3
- Peripherical leucocytes count (WBC) ± SD/mm^3 (Peripherical leucocytes; 15 mg/kg): 2950 ± 42 /mm^3
- Peripherical leucocytes count (WBC) ± SD/mm^3 (Peripherical leucocytes; 30 mg/kg): 2300 ± 60 /mm^3
- therapeutic index [a dose showing a maximum therapeutic effect/a dose showing a T/C of 130%] (Melanoma B16 tumour): 193
- Average survival days (days ± SD) (Melanoma B16 tumour; 0.031 mg/kg): 18.4 ± 1.5 days
- Survived after 60 days after implantation (Melanoma B16 tumour; 0.031 mg/kg): 0/5
- T/C (average survival days treated/untreated) (Melanoma B16 tumour; 0.031 mg/kg): 144%
- Average survival days (days ± SD) (Melanoma B16 tumour; 0.063 mg/kg): 13.0 ± 1.7 days
- Survived after 60 days after implantation (Melanoma B16 tumour; 0.063 mg/kg): 0/5
- T/C (average survival days treated/untreated) (Melanoma B16 tumour; 0.063 mg/kg): 140%
- Average survival days (days ± SD) (Melanoma B16 tumour; 0.125 mg/kg): 19.4 ± 2.0 days
- Survived after 60 days after implantation (Melanoma B16 tumour; 0.125 mg/kg): 0/5
- T/C (average survival days treated/untreated) (Melanoma B16 tumour; 0.125 mg/kg): 152%
- Average survival days (days ± SD) (Melanoma B16 tumour; 0.25 mg/kg): 17.8 ± 1.1 days
- Survived after 60 days after implantation (Melanoma B16 tumour; 0.25 mg/kg): 0/5
- T/C (average survival days treated/untreated) (Melanoma B16 tumour; 0.25 mg/kg): 140%
- Average survival days (days ± SD) (Melanoma B16 tumour; 0.5 mg/kg): 21.0 ± 2.8 days
- Survived after 60 days after implantation (Melanoma B16 tumour; 0.5 mg/kg): 0/5
- T/C (average survival days treated/untreated) (Melanoma B16 tumour; 0.5 mg/kg): 164%
- Average survival days (days ± SD) (Melanoma B16 tumour; 1.0 mg/kg): 24.0 ± 3.5 days
- Survived after 60 days after implantation (Melanoma B16 tumour; 1.0 mg/kg): 0/5
- T/C (average survival days treated/untreated) (Melanoma B16 tumour; 1.0 mg/kg): 189%
- Average survival days (days ± SD) (Melanoma B16 tumour; 2.0 mg/kg): 27.4 ± 5.4 days
- Survived after 60 days after implantation (Melanoma B16 tumour; 2.0 mg/kg): 0/5
- T/C (average survival days treated/untreated) (Melanoma B16 tumour; 2.0 mg/kg): 214%
- Average survival days (days ± SD) (Melanoma B16 tumour; 4.0 mg/kg): 33.4 ± 9.2 days
- Survived after 60 days after implantation (Melanoma B16 tumour; 4.0 mg/kg): 0/5
- T/C (average survival days treated/untreated) (Melanoma B16 tumour; 4.0 mg/kg): 261%
- Average survival days (days ± SD) (Melanoma B16 tumour; 6.0 mg/kg): 35.4 ± 5.3 days
- Survived after 60 days after implantation (Melanoma B16 tumour; 6.0 mg/kg): 1/5
- Average survival days (days ± SD) (Melanoma B16 tumour; 8.0 mg/kg): 10.6 ± 4.2 days
- Survived after 60 days after implantation (Melanoma B16 tumour; 8.0 mg/kg): 0/5
- T/C (average survival days treated/untreated) (Melanoma B16 tumour; 8.0 mg/kg): 93%
- Average survival days (days ± SD) (Melanoma B16 tumour; 12.0 mg/kg): 4.8 ± 1.6 days
- Survived after 60 days after implantation (Melanoma B16 tumour; 12.0 mg/kg): 0/5
- T/C (average survival days treated/untreated) (Melanoma B16 tumour; 12.0 mg/kg): 26%
- Solubility (Solubility; ethyl acetate, chloroform, acetone, methanol and ethanol): Soluble
- Solubility (Solubility; petroleum ether and n-hexane): Insoluble
- Solubility (Solubility; water): Slightly soluble
- T/C (tumour volume ratio) (Sarcoma 180 solid tumour; 1.88 mg/kg): 0.77
- Survials (7 days) (Sarcoma 180 solid tumour; 1.88 mg/kg): 4/4
- T/C (tumour volume ratio) (Sarcoma 180 solid tumour; 3.75 mg/kg): 0.64
- Survials (7 days) (Sarcoma 180 solid tumour; 3.75 mg/kg): 4/4
- T/C (tumour volume ratio) (Sarcoma 180 solid tumour; 7.5 mg/kg): 0.42
- Survials (7 days) (Sarcoma 180 solid tumour; 7.5 mg/kg): 4/4
- T/C (tumour volume ratio) (Sarcoma 180 solid tumour; 10 mg/kg): 0.34
- Survials (7 days) (Sarcoma 180 solid tumour; 10 mg/kg): 4/4
- T/C (tumour volume ratio) (Sarcoma 180 solid tumour; 15 mg/kg): 0.25
- Survials (7 days) (Sarcoma 180 solid tumour; 15 mg/kg): 4/4
- T/C (tumour volume ratio) (Sarcoma 180 solid tumour; 30 mg/kg): 0.05
- Survials (7 days) (Sarcoma 180 solid tumour; 30 mg/kg): 3/4
- effect (dose dependence) (Sarcoma 180 solid tumour; 7.5 to 15 mg/kg): the effect increased according to the increased dose
- ED50 (Sarcoma 180 solid tumour; Mus musculus, Sarcoma-180, 168 h, least squares from dose vs T/C log plot, read-out: ED50 (dose reducing tumour volume to 50% of control, T/C 0.5)): 5.7 mg/kg
- LD50 at 336 h ([1]; ip.): 7.8 mg/kg
- LD50 at 336 h ([1]; iv.): 27 mg/kg
